Assay results from US12012417B2, “N-substituted tetrahydrothienopyridine derivatives and uses thereof” (NOVARTIS AG, priority 2018, dated 2024).
Where a name gives a salt, the structure may show the parent alone.

Assays:
[1] = system: Dengue 1 virus MY97-10245; experiment: High-content imaging cell-based flavivirus immunodetection (HCl-CFI) assay, Dengue 1; conditions: Dengue virus, A549, 48 h, read-out: Dengue 1 virus MY97-10245 in A549 using HCl [Inhibitor/IC50] Qualified AC50
[2] = system: Dengue 2 virus MY97-10340; experiment: High-content imaging cell-based flavivirus immunodetection (HCl-CFI) assay, Dengue 2; conditions: Dengue virus, A549, 48 h, read-out: Dengue 2 virus MY97-10340 in A549 using HCl [Inhibitor/IC50] Qualified AC50, A549 cells, MOI 0.3, 48 h, viral E protein expression
Method: High-Content Imaging Cell-Based Flavivirus Immunodetection (HCl-CFI) Assay
A549 cells (7×10^3 cells per well) in a 384-well plate were infected with the DENV-2 (MY97-10340) strain at an MOI of 0.3. The cells were then treated with 3-fold, 10-point serial dilutions of test compound. After 48 h, the cells were fixed with paraformadehyde, and the viral E protein detected with 4G2 antibody labeled with Dylight™ 488 (GenScript). Cell nuclei were stained with Draq5 (Pierce/Thermo), and images were taken on the Opera imaging system (Perkin Elmer). A dose-response curve was plotted to calculate the effective concentration of compound needed to reduce expression of E protein by 50% (EC50) using GraphPad Prism.
The resulted EC50 values are summarized in Table 1 below: ±≥1 μM; 1 μM>++≥0.1 μM; 0.1 μm>+++

[3] = system: Dengue 3 virus MY05-34640-WT-C6/36; experiment: High-content imaging cell-based flavivirus immunodetection (HCl-CFI) assay, Dengue 3; conditions: Dengue virus, A549, 48 h, read-out: Dengue 3 virus MY05-34640-WT-C6/36 in A549 using HCl [Inhibitor/IC50] Qualified AC50
[4] = system: Dengue 4 virus MY01-22713; experiment: High-content imaging cell-based flavivirus immunodetection (HCl-CFI) assay, Dengue 4; conditions: Dengue virus, A549, 48 h, read-out: Dengue 4 virus MY01-22713 in A549 using HCl [Inhibitor/IC50] Qualified AC50, A549 cells, 48 h, viral E protein expression

Compound: N#Cc1c(NC(=O)Cc2ccc(S(N)(=O)=O)cc2)sc2c1CN(Cc1cccc(F)c1)CC2 [Example 5, N-(3-cyano-5-(3-fluorobenzyl)-4,5,6,7-tetrahydrothieno[3,2-c]pyridin-2-yl)-2-(4-sulfamoylphenyl)acetamide]
- EC50 [1]: 100 to 1000 nM
- EC50 [2]: < 100 nM
- EC50 [3]: < 100 nM
- EC50 [4]: < 100 nM

Compound: CC1Cc2sc(NC(=O)Cc3ccc(S(N)(=O)=O)cc3)c(C#N)c2CN1CC1CC(F)(F)C1 (stereo not drawn) [Example 56, N-(3-cyano-5-((3,3-difluorocyclobutyl)methyl)-6-methyl-4,5,6,7-tetrahydrothieno[3,2-c]pyridin-2-yl)-2-(4-sulfamoylphenyl)acetamide]
- EC50 [1]: > 1000 nM
- EC50 [2]: 100 to 1000 nM
- EC50 [3]: 100 to 1000 nM
- EC50 [4]: < 100 nM

Compound: CC1Cc2sc(NC(=O)Cc3ccc(S(C)(=O)=O)cc3)c(C#N)c2CN1Cc1cc(Cl)ccc1Cl (stereo not drawn) [Example 70, N-(3-cyano-5-(2,5-dichlorobenzyl)-6-methyl-4,5,6,7-tetrahydrothieno[3,2-c]pyridin-2-yl)-2-(4-(methylsulfonyl)phenyl)acetamide]
- EC50 [1]: 100 to 1000 nM
- EC50 [2]: < 100 nM
- EC50 [3]: < 100 nM
- EC50 [4]: < 100 nM

Compound: N#Cc1c(NC(=O)Cc2ccc(S(N)(=O)=O)cc2)sc2c1CCN(Cc1ccccc1F)C2 [Example 99, N-(3-cyano-6-(2-fluorobenzyl)-4,5,6,7-tetrahydrothieno[2,3-c]pyridin-2-yl)-2-(4-sulfamoylphenyl)acetamide]
- EC50 [1]: > 1000 nM
- EC50 [2]: 100 to 1000 nM
- EC50 [3]: 100 to 1000 nM
- EC50 [4]: 100 to 1000 nM

Compound: N#Cc1c(NC(=O)Cc2ccc(CS(N)(=O)=O)cc2)sc2c1CN(CC1CCCCC1)CC2 [Example 17, N-(3-cyano-5-(cyclohexylmethyl)-4,5,6,7-tetrahydrothieno[3,2-c]pyridin-2-yl)-2-(4-(sulfamoylmethyl)phenyl)acetamide]
- EC50 [1]: 100 to 1000 nM
- EC50 [2]: < 100 nM
- EC50 [3]: < 100 nM
- EC50 [4]: < 100 nM

Compound: N#Cc1c(NC(=O)Cc2ccc(S(N)(=O)=O)cc2)sc2c1CN(CC1CCCCC1)CC2 [Example 6, N-(3-cyano-5-(cyclohexylmethyl)-4,5,6,7-tetrahydrothieno[3,2-c]pyridin-2-yl)-2-(4-sulfamoylphenyl)acetamide]
- EC50 [1]: 100 to 1000 nM
- EC50 [2]: < 100 nM
- EC50 [3]: < 100 nM
- EC50 [4]: < 100 nM

Compound: N#Cc1c(NC(=O)Cc2ccc(S(N)(=O)=O)cc2)sc2c1CCCN(CC1CCCCC1)C2 [Example 127, N-(3-cyano-7-(cyclohexylmethyl)-5,6,7,8-tetrahydro-4H-thieno[2,3-c]azepin-2-yl)-2-(4-sulfamoylphenyl)acetamide]
- EC50 [1]: > 1000 nM
- EC50 [2]: 100 to 1000 nM
- EC50 [3]: 100 to 1000 nM
- EC50 [4]: 100 to 1000 nM

Compound: COc1cc(CC(=O)Nc2sc3c(c2C#N)CN(CC2CC(F)(F)C2)CC3)ccc1S(N)(=O)=O [Example 50, N-(3-cyano-5-((3,3-difluorocyclobutyl)methyl)-4,5,6,7-tetrahydrothieno[3,2-c]pyridin-2-yl)-2-(3-methoxy-4-sulfamoylphenyl)acetamide]
- EC50 [1]: 100 to 1000 nM
- EC50 [2]: 100 to 1000 nM
- EC50 [3]: 100 to 1000 nM
- EC50 [4]: 100 to 1000 nM

Compound: N#Cc1c(NC(=O)Cc2ccc(S(N)(=O)=O)cc2)sc2c1CCN(Cc1ccccc1Cl)C2 [Example 114, N-(6-(2-chlorobenzyl)-3-cyano-4,5,6,7-tetrahydrothieno[2,3-c]pyridin-2-yl)-2-(4-sulfamoylphenyl)acetamide]
- EC50 [1]: 100 to 1000 nM
- EC50 [2]: 100 to 1000 nM
- EC50 [3]: 100 to 1000 nM
- EC50 [4]: < 100 nM

Compound: COC(=O)c1ccccc1CN1CCc2c(sc(NC(=O)Cc3ccc(S(N)(=O)=O)cc3)c2C#N)C1 [Example 91, Methyl-2-((3-cyano-2-(2-(4-sulfamoylphenyl)acetamido)-4,5-dihydrothieno[2,3-c]pyridin-6-(71-1)-yl)methyl)benzoate hydrochloride]
- EC50 [2]: > 1000 nM
- EC50 [3]: > 1000 nM
- EC50 [4]: 100 to 1000 nM
